# From patent US9238812B2, “Agent for suppressing expression of dominant mutant gene” (LSIP, LLC, priority 2010, dated 2016)
# r = 2'-OH (RNA)
# Columns and labels:
# Assay type in all cases: cell-based, human
# PC3 cells [1] = test: Cell growth and survival activity of PC3 cells exposed to gefitinib or EGFR-siRNA at varying concentrations; settings: siRNA 0-100 nM by electroporation, 3 days
# Procedure: In order to evaluate the cell growth and survival activity of PC3 cells after the introduction of si747/49-3D19, MTS reductive effect induced by nicotinamide adenine dinucleotide (NADH) contained in live cells was measured using CellTiter 96 AQueous Non-Radioactive Cell Proliferation Assay (Promega Corp.). The experimental procedures followed the protocol included in the product. Absorbance was measured using BenchMark Plus (Bio-Rad Laboratories, Inc.). The negative controls used were the same two controls (No siRNA and siControl) as in the cell growth ability assay.
# The analysis employed human non-small cell lung cancer-derived cell line PC3 cells and PC9 cells having EGFR del(L747-E749)-A750P mutation and del(E746-A750) mutation, respectively, and control human HeLa cells having wild-type EGFR.
# The cultured PC3 cells, PC9 cells, and HeLa cells were separately dispersed by trypsin digestion, then collected by centrifugation (120 G, 5 min.), and cultured (cell density: approximately 1×10^5 cells/cm^2) in a 96-well culture plate. […] 3 days later, cell survival activity was measured.
# 3 days later, cell survival activity was measured.
# Cell growth and survival activity evaluation (1)”.
# PC3 cells [2] = test: Cytotoxicity evaluation, LDH released into culture solution; settings: PC3 cells after siRNA electroporation; compared with No siRNA and siControl
# Procedure: (§1) PC3 cells were cultured in the same way as in “Example 2(1)”.
# (§2) Electroporation was performed in the same way as in “Example 2(2)”.
# (§3) The cells were cultured (cell density: approximately 3×10^4 cells/well) in a 96-well culture plate using the culture solution of the paragraph (1). One day and 4 days later, the cells were subjected to each evaluation experiment. si747/49-3D19 was also subjected to similar evaluation experiments, together with a control, 2 days and 6 days after the cell culture.
# In order to evaluate cytotoxicity to PC3 cells after the introduction of si747/49-3D19, the level of LDH released from the cells into a culture solution by cytotoxicity was measured using CytoTox 96 Non-Radioactive Cytotoxicity Assay (Promega Corp.). The experimental procedures followed the protocol included in the product. Absorbance was measured using BenchMark Plus (Bio-Rad Laboratories, Inc.). The negative controls used were the same two controls (No siRNA and siControl) as in the cell growth ability assay.
# PC3 cells [3] = test: Cell growth and survival activity evaluation (2), relative ATP level (CellTiter-Glo); settings: culture day 4, compared with No siRNA and siControl
# Procedure: as §1, §2, §3
# (§4) In order to evaluate the cell growth and survival activity of PC3 cells after the introduction of si747/49-3D19, the relative ATP level of the cells was measured using CellTiter-Glo Assay (Promega Corp.). The experimental procedures followed the protocol included in the product. Luminescence intensity was measured using Fusion Universal Microplate Analyzer (Perkin Elmer Inc.). The negative controls used were the same two controls (No siRNA and siControl) as in the cell growth ability assay.
# PC3 cells [4] = test: Cell growth ability (total number of cells) assay, intracellular LDH level; settings: PC3 cells after siRNA electroporation; compared with No siRNA and siControl
# Procedure: as §1, §2, §3
# In order to examine time-dependent change in the number of PC3 cells (cell growth ability) after the introduction of si747/49-3D19, intracellular lactate dehydrogenase (LDH) level was measured using CytoTox 96(R) Non-Radioactive Cytotoxicity Assay (Promega Corp.). The experiment was conducted according to the protocol included in the product. Briefly, a cell lysis buffer (Lysis Solution (10×)) included in the assay kit was added to the culture solutions of all sample groups. All LDHs contained in all the cells were released by incubation at 37° C. for 45 minutes. This LDH level was measured to indirectly calculate the total number of cells. Absorbance was measured using BenchMark Plus (Bio-Rad Laboratories, Inc.).
# PC3 cells [5] = test: Cell death (apoptosis) evaluation, caspase 3/7 activity; settings: culture day 4, compared with No siRNA and siControl
# Procedure: as §1, §2, §3
# as §4, with “death (apoptosis)” for “growth and survival activity”, “caspase 3/7 activity” for “the relative ATP level of the cells”, “Caspase-Glo 3/7” for “CellTiter-Glo”
substance,measurement,setting,value
"si747/49-3D19: siRNA against EGFR del(L747-E749)-A750P(G) mutant gene; ss SEQ ID NO 55, as SEQ ID NO 56, 3′ UU added (sense GUCGCUAUCAAGGAGCCAA; antisense UUGGCUCCUUGAUAGCGAC; RNA, 3' rUrU, backbone not given here; listed as Homo sapiens)",cell growth and survival activity after EGFR-siRNA,PC3 cells [1],apparently suppress cell growth and reduce survival activity
same,cytotoxicity (LDH released from the cells),PC3 cells [2],does not induce cell death attributed to cytotoxicity
same,"cell growth and survival activity (cell survival rate), relative ATP level",PC3 cells [3],significantly suppressed the growth rates of the cells or reduced their survival rates
same,total number of PC3 cells (relative LDH level),PC3 cells [4],significantly decreased
same,caspase 3/7 activity (apoptosis),PC3 cells [5],did not cause significant change
